Reference: patent US20130324555A1, “Method of use of pharmaceutical formulations for the treatment of apicomplexan diseases in animals” (priority 2012, published 2013)
Entries after “also recorded” stand apart in the source; their conditions may differ. Read-outs that look alike come from different tables or passages of the source.

Columns and labels:
T. gondii tachyzoites = test: In vitro inhibition of T. gondii tachyzoites (RH-YFP fluorescence / [3H]-uracil incorporation); format: cell-based; settings: for IC90 / IC50: Toxoplasma gondii; for activity against T. gondii tachyzoites, in words: only MIC50≦1 μM considered active
Method: (§1) Determination of the anti-apicomplexan activity of Compounds of Formula I may be determined by one skilled in the art. Parasite proliferation was monitored by using stably transfected type I RH-YFP parasites, which constitutively express Yellow Florescent Protein. Proliferation also was tested using a [^3H]-Uracil incorporation assay, as Uracil is incorporated into nucleic acids of T. gondii tachyzoites, but not mammalian cells, as they divide. Complimentary challenge assays ensured that the observed fluorescence data was due to parasite inhibition and not to quenched fluorescence. Pyrimethamine and sulfadiazine were used as positive controls, and DMSO at a concentration of 0.1% was used as the negative control. Because T. gondii is an obligate parasite, compounds that are toxic to host cells will appear to inhibit parasite growth. Therefore, all test compounds were simultaneously evaluated for efficacy and toxicity against human cells.
Test compounds were dissolved in DMSO to make a 10 mM solution, and subsequently diluted with IMDM-C to the concentrations used in bioassay. In the in vitro experiments DMSO concentration was not greater than 0.1% unless otherwise specified. RH-YFP parasites, which stably express Yellow Florescent Protein, were used. Tachyzoites were extracted from HFF cells by double passage through a 25-gauge needle, centrifuged for 15 minutes at 1500 RPM, and resuspended in IMDM-C. Confluent monolayers of HFF cells were infected with parasites in 96-well plates (Falcon 96 Optilux Flat-bottom) with 3,500 parasites in 100 uL per well. One hour after inoculation, test compounds and control media were added for a final volume of 200 uL per well. Parasite proliferation was assessed using [^3H]-Uracil incorporation or YFP Fluorescence assay.
Human Foreskin Fibroblast (HFF) cells were maintained in confluent monolayers in Iscoves's Modified Dulbecco's Medium supplemented with 10% fetal bovine serum, 1% GlutaMAX and 1% penicillin-streptomycin-fungizone (IMDM-C). T. gondii tachyzoites were cultivated in HFF monolayers. Parasites and cells were maintained at 33° C. or 37° C. and 5% CO2. The strains of parasite used in this study include RH, RH-YFP, and Prugnaud FLUC (Type 2 parasites stably transfected with luciferase), Me49 strain, and TgGoatUS4 isolate.
25 μL of 0.1 mCi/mL*^3H]-Uracil or [^3H]-Thymidine was added to each well 24 hours before reading plates. At harvesting, contents of the wells were transferred onto a 96-well UniFilter GF/C filter plates using a Filtermate 196 cell harvester (Packard). [^3H]-Uracil and [^3H]-Thymidine incorporation was measured using a Microplate Scintillation Luminescence Counter (Packard).
72 hours after initiation of the in vitro challenge assay, parasite proliferation was assessed by reading fluorescence of YFP parasites with a Synergy H4 Hybrid Reader (BioTek) and Gen5 1.10 software, using a bottom optics positions, excitation wavelength of 514 nm, and emission wavelength of 540 nm.

HFF cells = test: In vitro toxicity assay on host cells ([3H]-thymidine incorporation or WST-1); format: cell-based, Human; settings: for Toxicity: HFF cells
Method: as §1
HFF cells were grown to 30% confluence in 96-well plates.
Inhibitory compounds and control media were added to wells in concentrations equal to those being tested in challenge assays. After 72 hours, [^3H]-Thymidine incorporation assay was conducted to assess cell growth. Alternatively, toxicity was assessed using WST-1 cell proliferation reagent (Roche). Confluent HFF cells were treated with inhibitory and control compounds. On the final day of experiment, 10 uL of WST-1 reagent was added to each well. Plates were incubated for 1 hour in the dark at 37° C., and absorbance was measured using Synergy H4 Hybrid Reader (BioTek) fluorometer at […].

[1] = system: THdhxgTRP tachyzoites transfected with pLK47; test: Insertional mutagenesis experiments (selection of resistant mutants); format: cell-based, T. gondii; settings: prolonged incubation (six weeks)
Method: Insertional mutagenesis experiments were performed.
THdhxgTRP tachyzoites were transfected with pLK47 vector plasmid. Parasites were extracted from HFF cells and resuspended in 1 mL cytomix electroporation buffer solution (120 mM KCl, 150 uM CaCl2, 5 mM K2HPO4, 5 mM KH2PO4, 25 mM HEPES, 2 mM EDTA and 5 mM MgCl2 in sterile H2O). Equivalent amounts of plasmid DNA and cytomix solution containing 10×10^7 parasites were combined for a total volume of 400 uL and electroporated using BioRad electroporator at 1.5 k, […] and 100Ω. […] Successfully transfected parasites were selected by month-long treatment with mycophenolic acid (25 ug/mL) and xanthine (50 ug/mL). After one month, the mixed mutant population were exposed to 3i, 3j, 7a or 14b to select for those mutants whose gene disruption conferred resistance to the drug.

[2] = serial dilutions, additional test concentrations, RH-YFP, read-out: IC90
[3] = serial dilutions, additional test concentrations, RH-YFP, read-out: IC50

CC(C)(C)c1cccc(NC(=O)c2cc(Cl)ccc2O)c1 [Compound 3i, N-(3-tert-butylphenyl)-5-chloro-2-hydroxybenzamide]
IC90 (T. gondii tachyzoites; [2]): 16 to 31 nM | activity against T. gondii tachyzoites, in words (T. gondii tachyzoites): active at low nanomolar concentrations | toxicity to human host cells, in words (HFF cells): not toxic to human host cells | Toxicity (HFF cells): >1000 nM | parasite growth of mixed mutant population in the presence of compound [1]: No parasite growth was observed; also recorded: No parasite growth was noted

O=C(Oc1ccc(Cl)cc1C(=O)Nc1ccc([N+](=O)[O-])cc1Cl)c1ccccc1 [Compound 7a, 4-chloro-2-((2-chloro-4-nitrophenyl)carbamoyl)phenyl benzoate]
IC50 (T. gondii tachyzoites; [3]): 61 to 125 nM | IC90 (T. gondii tachyzoites; [2]): 125 to 250 nM | activity against T. gondii tachyzoites, in words (T. gondii tachyzoites): active at low nanomolar concentrations; also recorded: apparent increase in potency over 4 | toxicity to human host cells, in words (HFF cells): not toxic to human host cells | Toxicity (HFF cells): >1000 nM | parasite growth of mixed mutant population in the presence of compound [1]: No parasite growth was observed; also recorded: No parasite growth was noted

O=C(Nc1cc(C(F)(F)F)cc(C(F)(F)F)c1)c1cc(Cl)ccc1O [Compound 3j]
IC50 (T. gondii tachyzoites; [3]): 16 to 31 nM | IC90 (T. gondii tachyzoites; [2]): 125 to 250 nM | activity against T. gondii tachyzoites, in words (T. gondii tachyzoites): active at low nanomolar concentrations; also recorded: promising activity | toxicity to human host cells, in words (HFF cells): not toxic to human host cells | Toxicity (HFF cells): >1000 nM | parasite growth of mixed mutant population in the presence of compound [1]: No parasite growth was observed; also recorded: No parasite growth was noted

CN(CC(=O)NN)C(=O)Oc1ccc(Cl)cc1C(=O)Nc1ccc([N+](=O)[O-])cc1Cl.Cl [Compound 14a, 4-chloro-2-((2-chloro-4-nitrophenyl)carbamoyl)phenyl (2-hydrazinyl-2-oxoethyl)(methyl)carbamate hydrochloride]
IC50 (T. gondii tachyzoites): 16 to 31 nM | IC90 (T. gondii tachyzoites): 125 to 250 nM | activity against T. gondii tachyzoites, in words (T. gondii tachyzoites): active at low nanomolar concentrations | toxicity to human host cells, in words (HFF cells): not toxic to human host cells | Toxicity (HFF cells): >1000 nM

CN(CC(=O)NN)C(=O)Oc1ccc(Cl)cc1C(=O)Nc1ccc(C(F)(F)F)cc1C(F)(F)F.Cl [Compound 14b, 2-((2,4-bis(trifluoromethyl)phenyl)carbamoyl)-4-chlorophenyl (2-hydrazinyl-2-oxoethyl)(methyl)carbamate hydrochloride]
IC50 (T. gondii tachyzoites): 125 to 250 nM | IC90 (T. gondii tachyzoites): 125 to 250 nM | activity against T. gondii tachyzoites, in words (T. gondii tachyzoites): active at low nanomolar concentrations | toxicity to human host cells, in words (HFF cells): not toxic to human host cells | Toxicity (HFF cells): >1000 nM | parasite growth of mixed mutant population in the presence of compound ([1]; hydrochloride): No parasite growth was observed; also recorded: No parasite growth was noted
